Key:
full length (FL) LXRβ = target: T1, full length (FL) LXRβ (Homo sapiens, UniProt P55055, DUP175-175); assay: LXR Gal4 reporter transient transfection assay (FL-M2H Gal4β); assay type: cell-based; settings: HEK293 cells, full length LXRβ; read-out: FL-M2H Gal4β (EC50 range)
T1 construct: the full length (FL) proteins of LXRα (amino acids 1-447); NP005684; NP009052; expressed in transfected cells; host or cells: HEK293
T1 sequence (P55055 with tags, fused parts or gaps DUP175-175): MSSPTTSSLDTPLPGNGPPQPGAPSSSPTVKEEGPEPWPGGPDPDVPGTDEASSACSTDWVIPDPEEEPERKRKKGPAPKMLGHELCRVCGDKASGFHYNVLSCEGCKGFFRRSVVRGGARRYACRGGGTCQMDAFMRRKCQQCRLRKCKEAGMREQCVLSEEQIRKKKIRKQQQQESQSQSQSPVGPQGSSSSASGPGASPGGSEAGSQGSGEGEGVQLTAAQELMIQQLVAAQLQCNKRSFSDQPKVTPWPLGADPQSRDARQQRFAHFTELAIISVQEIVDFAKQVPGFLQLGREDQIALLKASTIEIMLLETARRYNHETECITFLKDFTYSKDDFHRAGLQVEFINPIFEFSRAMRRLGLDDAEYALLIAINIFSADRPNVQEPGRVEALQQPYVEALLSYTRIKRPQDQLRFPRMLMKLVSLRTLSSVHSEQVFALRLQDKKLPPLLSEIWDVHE
Experimental: (§1) The tested compounds were usually dissolved, tested and stored as 20 mM stock solutions in DMSO. Since sulfonyl acetic acid derivatives tend to decarboxylate under these conditions, these stock solutions were prepared, tested and stored as 20 mM DMSO stock solutions containing 100 mM trifluoroacetic Acid (5 equivalents). Sulfonyl acetic acid derivatives are shelf stable as solid at rt for long time as reported by Griesbrecht et al. (Synlett 2010:374) or Faucher et al. (J. Med. Chem. 2004; 47:18).
LXR Gal4 Reporter Transient Transfection Assays
LXRα and LXRβ activity status was determined via detection of interaction with coactivator and corepressor proteins in mammalian two-hybrid experiments (M2H). For this, via transient transfection the full length (FL) proteins of LXRα (amino acids 1-447; NP005684; SEQ ID NO:1) or LXRβ-(amino acids 1-461; NP009052; SEQ ID NO:2) or the ligand-binding domains (LBD) of LXRα (amino acids 155-447 SEQ ID NO:3) or LXRβ (amino acids 156-461; SEQ ID NO:4) were expressed from pCMV-AD (Stratagene) as fusions to the transcriptional activation domain of NFkB. As cofactors, domains of either the steroid receptor coactivator 1 (SRC1; amino acids 552-887; SEQ ID NO:5) or of the corepressor NCoR (amino acids 1906-2312; NP006302; SEQ ID NO:6) were expressed as fusions to the DNA binding domain of the yeast transcription factor GAL4 (from pCMV-BD; Stratagene). Interaction was monitored via activation of a coexpressed Firefly Luciferase Reporter gene under control of a promoter containing repetitive GAL4 response elements (vector pFRLuc; Stratagene). Transfection efficiency was controlled via cotransfection of constitutively active pRL-CMV Renila reniformis luciferase reporter (Promega). HEK293 cells were grown in minimum essential medium (MEM) with 2 mM L-glutamine and Earle's balanced salt solution supplemented with 8.3% fetal bovine serum, 0.1 mM non-essential amino acids, 1 mM sodium pyruvate, at 37° C. in 5% CO2. 3.5×10^4 cells/well were plated in 96-well cell culture plates in growth medium supplemented with 8.3% fetal bovine serum for 16-20 h to ˜90% confluency. For transfection, medium was taken off and LXR and cofactor expressing plasmids as well as the reporter plasmids are added in 30 μL OPTIMEM/well including polyethylene-imine (PEI) as vehicle. Typical amounts of plasmids transfected/well: pCMV-AD-LXR (5 ng), pCMV-BD-cofactor (5 ng), pFR-Luc (100 ng), pRL-CMV (0.5 ng). Compound stocks were prepared in DMSO, prediluted in MEM to a total volume of 120 μL, and added 4 h after addition of the transfection mixture (final vehicle concentration not exceeding 0.2%). Cells were incubated for additional 16 h, lysed for 10 min in 1× Passive Lysis Buffer (Promega) and Firefly and Renilla luciferase activities were measured sequentially in the same cell extract using buffers containing D-luciferine and coelenterazine, respectively. Measurements of luminescence were done in a BMG-luminometer.

[1] = target: T2, LXRβ ligand-binding domain (Homo sapiens, UniProt P55055, DUP175-175); assay: TR-FRETβ activity assay (NCoA3 coactivator peptide recruitment); assay type: biochemical; settings: TR-FRET, 1 μM 24(S)-25-epoxycholesterol prestimulation; read-out: FRETβ (EC50 range)
T2 construct: amino acids 156-461; NP009052; made in house; host or cells: E. coli
T2 sequence (P55055 with tags, fused parts or gaps DUP175-175 limits assumed): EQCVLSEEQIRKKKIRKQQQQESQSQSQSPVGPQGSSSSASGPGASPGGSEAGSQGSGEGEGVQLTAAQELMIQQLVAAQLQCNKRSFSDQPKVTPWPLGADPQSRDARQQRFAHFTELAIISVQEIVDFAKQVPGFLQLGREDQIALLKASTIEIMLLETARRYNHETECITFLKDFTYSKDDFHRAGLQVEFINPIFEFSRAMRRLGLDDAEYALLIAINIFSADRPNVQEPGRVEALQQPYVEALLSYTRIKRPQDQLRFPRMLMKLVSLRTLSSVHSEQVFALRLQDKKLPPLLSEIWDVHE
Experimental: as §1
Recombinant GST-LXRPβ ligand-binding domain (LBD; amino acids 156-461; NP009052; SEQ ID NO:4) was expressed in E. coli and purified via gluthatione-sepharose affinity chromatography. N-terminally biotinylated NCoA3 coactivator peptide (SEQ ID NO:7) was chemically synthesized (Eurogentec). Assays were done in 384 well format (final assay volume of 25 μL/well) in a Tris/HCl buffer (pH 6.8) containing KCl, bovine serum albumin, Triton-X-100 and 1 μM 24(S)-25-epoxycholesterol as LXR-prestimulating agonist. Assay buffer was provided and test articles (potential LXR inverse agonists) were titrated to yield final assay concentrations of 50 μM, 16.7 μM, 5.6 μM, 1.9 μM, 0.6 μM, 0.2 μM, 0.07 μM, 0.02 μM, 0.007 μM, 0.002 μM with one vehicle control. Finally, a detection mix was added containing anti GST-Tb cryptate (CisBio; 610SAXLB) and Streptavidin-XL665 (CisBio; 610SAXLB) as fluorescent donor and acceptor, respectively, as well as the coactivator peptide and LXRβ-LBD protein (SEQ ID NO:4). The reaction was mixed thoroughly, equilibrated for 1 h at 4° C. and vicinity of LXRβ and coactivator peptide was detected by measurement of fluorescence in a VictorX4 multiplate reader (PerkinElmer Life Science) using 340 nm as excitation and 615 and 665 nm as emission wavelengths. Assays were performed in triplicates.
Final Assay Concentrations of Components:
240 mM KCl, 1 μg/μL BSA, 0.002% Triton-X-100, […] anti GST-Tb cryptate, 2.5 ng/μL Streptavidin-XL665, coactivator peptide (400 nM), LXRβ protein (530 μg/mL, i.e. 76 nM).

Compound	EC50 (full length (FL) LXRβ) [nM]	EC50 [1] [nM]
Cc1ccc(S(=O)(=O)n2c(-c3cccc(N4CC(C(=O)O)C4)c3)c(-c3ccsc3/C=N/O)c3cc(F)ccc32)cc1 [3/7]	< 100	1000 to 10000
Cc1ccc(S(=O)(=O)n2c(-c3cccc(S(=O)(=O)CC(=O)O)c3)c(-c3ccsc3C#N)c3ccccc32)cc1 [3/15]	–	1000 to 10000
Cc1ccc(S(=O)(=O)n2c(-c3cccc(N4CC(C(=O)O)C4)c3)c(-c3ccsc3C(=O)N(C)C)c3cc(F)ccc32)cc1 [3/28]	1000 to 10000	> 10000
Cc1ccc(S(=O)(=O)n2c(-c3cccc(-c4ccc(C(N)=O)cc4)c3)c(-c3ccsc3C#N)c3cc(F)ccc32)cc1 [6/2]	< 100	100 to 1000
Cc1cccc(C#N)c1-c1c(-c2cccc(-c3ccc(C(=O)O)cc3Cl)c2)n(S(=O)(=O)c2ccc(C(F)F)cc2)c2ccc(F)cc12 [11/36, 2-chloro-3′-(3-(2-cyano-6-methylphenyl)-1-((4-(difluoro-methyl)phenyl)sulfonyl)-5-fluoro-1H-indol-2-yl)-[1,1′-biphenyl]-4-carboxylic Acid]	< 100	< 100
N#Cc1cccc(C#N)c1-c1c(-c2cccc(-c3ccc(C(=O)O)cc3)c2)n(S(=O)(=O)c2ccc(C(F)F)cc2)c2ccc(F)cc12 [11/50]	< 100	< 100
N#Cc1sccc1-c1c(-c2cccs2)n(S(=O)(=O)c2ccc(Cl)cc2)c2cc(OCC(=O)O)ccc12 [15/3]	–	> 10000
N#Cc1sccc1-c1c(-c2ccccc2)n(S(=O)(=O)c2ccc(CC(=O)O)cc2)c2ccccc12 [27/1]	–	1000 to 10000
N#Cc1sccc1-c1c(-c2ccccc2)n(S(=O)(=O)c2ccc(-c3cccc(C(=O)O)c3)cc2)c2ccccc12 [27/2]	–	1000 to 10000
N#Cc1sccc1-c1c(-c2ccccc2)n(S(=O)(=O)c2ccc(CC(=O)O)s2)c2ccccc12 [27/3]	–	> 10000
Cn1cnc(S(=O)(=O)n2c(-c3cccc(C4CC4C(=O)O)c3)c(-c3ccsc3C#N)c3ccccc32)c1 (stereo not drawn) [30/10]	–	> 10000
Cc1ccc(S(=O)(=O)n2c(-c3cccc(-c4ccc(CN(C)C)cc4Cl)c3)c(-c3ccsc3C#N)c3cc(F)ccc32)cc1 [Example 2, 3-(2-(2′-Chloro-4′-((dimethylamino)methyl)-[1,1′-biphenyl]-3-yl)-5-fluoro-1-tosyl-1H-indol-3-yl)thiophene-2-carbonitrile]	< 100	100 to 1000
Cc1ccc(S(=O)(=O)n2c(-c3cccc(-c4cncc(S(=O)(=O)CC(=O)O)c4)c3)c(-c3ccsc3C#N)c3ccccc32)cc1 [Example 5, 2-((5-(3-(3-(2-Cyanothiophen-3-yl)-1-tosyl-1H-indol-2-yl)phenyl)pyridin-3-yl)sulfonyl)acetic Acid]	1000 to 10000	100 to 1000
Cc1ccc(S(=O)(=O)n2c(-c3cccc(-c4ccc(C(=O)NO)cc4)c3)c(-c3ccsc3C#N)c3cc(F)ccc32)cc1 [Example 6, 3′-(3-(2-Cyanothiophen-3-yl)-5-fluoro-1-tosyl-1H-indol-2-yl)-N-hydroxy-[1,1′-biphenyl]-4-carboxamide]	< 100	100 to 1000
Cc1ccc(S(=O)(=O)n2c(-c3cccc(-c4ccc(C(=O)NCCS(=O)(=O)O)cc4Cl)c3)c(-c3ccsc3C#N)c3cc(F)ccc32)cc1 [Example 10, 2-(2-Chloro-3′-(3-(2-cyanothiophen-3-yl)-5-fluoro-1-tosyl-1H-indol-2-yl)-[1,1′-biphenyl]-4-carboxamido)ethane-1-sulfonic Acid]	100 to 1000	100 to 1000
Cc1ccc(S(=O)(=O)n2c(-c3cccc(-c4ccc(C(=O)O)cc4Cl)c3)c(-c3ccccc3C#N)c3cc(F)ccc32)cc1 [Example 11, 2-Chloro-3′-(3-(2-cyanophenyl)-5-fluoro-1-tosyl-1H-indol-2-yl)-[1,1′-biphenyl]-4-carboxylic acid]	< 100	< 100
Cc1ccc(S(=O)(=O)n2c(-c3cccc(-c4cc(C)c(C(=O)O)cc4Cl)c3)c(-c3ccsc3C#N)c3cc(F)ccc32)cc1 [Example 12, 2-Chloro-3′-(3-(2-cyanothiophen-3-yl)-5-fluoro-1-tosyl-1H-indol-2-yl)-5-methyl-[1,1′-biphenyl]-4-carboxylic acid]	< 100	100 to 1000
N#Cc1sccc1-c1c(-c2cccs2)n(S(=O)(=O)c2ccc(Cl)cc2)c2cc(C(=O)O)ccc12 [Example 19, 1-((4-Chlorophenyl)sulfonyl)-3-(2-cyanothiophen-3-yl)-2-(thiophen-2-yl)-1H-indole-6-carboxylic Acid]	–	> 10000
Cc1ccc(S(=O)(=O)n2c(-c3cccc(-c4cnc(C(=O)O)cc4C)c3)c(-c3ccsc3C#N)c3cc(F)ccc32)cc1 [Example 36, 5-(3-(3-(2-Cyanothiophen-3-yl)-5-fluoro-1-tosyl-1/indol-2-yl)phenyl)-4-methylpicolinic Acid]	100 to 1000	1000 to 10000
Cc1ccc(S(=O)(=O)n2c(-c3cccc(-c4ccc(-c5nnn[nH]5)cc4Cl)c3)c(-c3ccsc3C#N)c3cc(F)ccc32)cc1 [Example 37, 3-(2-(2′-Chloro-4′-(1H-tetrazol-5-yl)-[1,1′-biphenyl]-3-yl)-5-fluoro-1-tosyl-1H-indol-3-yl)thiophene-2-carbonitrile]	< 100	100 to 1000
